{
  "source": "patent US10869929B2",
  "about": "“Phosphonate linkers and their use to facilitate cellular retention of compounds” (priority 2016, dated 2020)",
  "key": {"glucocorticoid receptor": {"molecular_target": "glucocorticoid receptor (Homo sapiens (Human), UniProt P04150)", "sequence (P04150 whole entry)": "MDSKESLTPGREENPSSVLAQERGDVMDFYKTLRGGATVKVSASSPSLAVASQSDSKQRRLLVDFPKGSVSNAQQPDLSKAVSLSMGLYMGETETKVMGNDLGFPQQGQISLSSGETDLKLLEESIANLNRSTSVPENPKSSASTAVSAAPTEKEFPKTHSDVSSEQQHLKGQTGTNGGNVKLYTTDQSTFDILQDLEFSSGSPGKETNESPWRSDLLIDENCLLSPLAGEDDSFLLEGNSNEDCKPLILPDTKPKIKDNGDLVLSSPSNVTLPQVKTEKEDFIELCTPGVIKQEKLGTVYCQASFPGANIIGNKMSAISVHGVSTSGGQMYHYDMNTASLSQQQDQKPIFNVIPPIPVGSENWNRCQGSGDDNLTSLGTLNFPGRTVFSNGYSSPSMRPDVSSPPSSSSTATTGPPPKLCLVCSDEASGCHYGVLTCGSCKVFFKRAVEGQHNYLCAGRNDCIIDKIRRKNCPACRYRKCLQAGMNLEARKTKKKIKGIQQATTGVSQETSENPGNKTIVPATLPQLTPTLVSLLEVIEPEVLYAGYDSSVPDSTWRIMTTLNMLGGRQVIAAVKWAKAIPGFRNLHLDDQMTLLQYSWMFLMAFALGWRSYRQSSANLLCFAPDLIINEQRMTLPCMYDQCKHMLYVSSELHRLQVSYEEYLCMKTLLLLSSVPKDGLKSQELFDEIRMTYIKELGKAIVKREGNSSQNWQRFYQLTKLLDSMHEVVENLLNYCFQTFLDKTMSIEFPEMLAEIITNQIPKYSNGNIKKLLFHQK", "assay": "PolarScreen Glucocorticoid Receptor Competitor Assay (GR binding)", "details": "fluormone GS red, GR full length protein; read-out: GR Bind IC50", "protocol": "The potency of binding to glucocorticoid receptor by small molecule compounds was measured with the PolarScreen™ Glucocorticoid Receptor Competitor Assay Kit, Red (Life Technology, Catalog #A15898) according to the procedure in the kit. In brief, after compounds were diluted and transferred into assay plates, the fluormone GS red and GR full length protein were subsequently added into the assay plates, along with the positive and negative controls. The samples were mixed on a shaker for 1 minute and then the plates were incubated at room temperature for 2-4 hours with minimal light exposure. The plates were read with an Envision and the relative fluorescent signals were calculated. The data were plotted in GraphPad Prism and the EC50 values were calculated with non-linear regression curve fit of the data in GraphPad Prism."}, "GILZ gene": {"system": "GILZ gene", "assay": "GILZ gene assay (qPCR, HUT78 / 786-O cells)", "assay_type": "cell-based", "protocol": "GILZ gene assays were conducted as follows. HUT78 cells were cultured in IMEM plus 20% heat inactivated FBS and cell density was maintained between 0.1 to 1.2 million/mL. 786-O cells were cultured in RPMI plus 10% heat inactivated FBS. Actively growing cells were harvested and resuspended in HBSS with 2% FBS at 1.1 million cells per mL then dispensed to 384-well V-bottom plates at 45 μL per well. Serially diluted ADC solution was added to the cell plate (5 μL per well) and mixed for 2 min. Cells were then cultured at 37° C., at 5% CO2 for a designated time before supernatant was removed. Cells were harvested in lysis buffer from the Cells-to-Ct kit (40 μL, Life Technologies, 4391851C) following the supplier's protocol and mixed for 10 min followed by addition of 5 μL per well of stop solution from the kit. cDNA was synthesized with a reverse transcription kit (Life Technologies, 4391852C) follow by qPCR using the TaqMan gene expression master mix (Life Technologies, 4369016) with GILZ gene assay (Life Technologies, Hs00608272_m1) and GAPDH assay (Hs2758991_g1) in a duplex format with 3-4 technical replicates."}, "MDCKII cells": {"system": "MDCKII cells", "assay": "Apparent permeability in MDCKII cells", "assay_type": "in vitro ADME", "details": "1 μM, t=3 hr, average of A to B and B to A Papp", "protocol": "Determination of apparent permeability was as follows. MDCKII cells (kindly provided by the Netherlands Cancer Institute, under a licensing agreement) were seeded on to 96-well transwell culture plates (Millipore Corp, Billerica, Mass.) and used in experiments after five days in culture. […] Substrate solution (150 μL) was added to either the apical (A) or the basolateral (B) compartment of the culture plate, and buffer (150 μL; HBSS, 10 mM HEPES, pH 7.4) with 10 μM cyclosporine A was added to the compartment opposite to that containing the substrate. At t=3 hr, 50 μL samples were removed from both sides of monolayers dosed with test compound and placed in 96 well plates, 50 μL internal standard (1 μM labetolol) and 100 μL HBSS was added to the samples. Samples were analyzed by LC/MS/MS using an Applied Biosystems SCIEX API 5000 triple quadruple mass spectrometer (Concord, ON, Canada) with a TurbolonSpray ion source in the positive ion mode. A Thermo Scientific Transcend LX-2 system (Franklin, Mass.) was coupled to the API 5000 with a flow rate of 800 μL/min to direct sample into the mass spectrometer.\nPapp was expressed as 10^−6 cm/s."}, "ZBTB16 mRNA": {"system": "ZBTB16 mRNA", "assay": "Up-regulation of ZBTB16 mRNA in primary human B cells", "assay_type": "cell-based", "method": "The carrier solution for all ADCs and naked antibodies was 50 mM histidine pH 6.0, 100 mM NaCl and 5% trehelose. To assure consistency across experiments, ADCs were thawed on ice, dispensed to small aliquots, frozen to −80° C., and those aliquots were then used for experiments with unused material discarded at the end of the day. For all in vitro studies in this report, none of the read outs were measurably different in the presence or absence of the carrier solution. Nevertheless, the final concentration of antibody carrier solution was maintained constant at 1% v/v by serially diluting antibody solution prior to addition to the assay mixture and adding carrier solution to control wells.\nFor the studies of ADCs bearing reduced permeability payloads frozen human CD19+ B cells purchased from Precision Biosciences (catalog #84400, donor #13108) were thawed and re-suspended in RPMI1640 plus 10% heat-inactivated FBS (cell culture medium) at 1 million cells/mL. […] B cells were bulk treated in a 96-well block and subsequently dispensed to 96 well plates (100 μL and […] cells per well) and incubated at 37° C., 5% CO2 for 18 or 40 hr. Control wells containing equal percentages of DMSO (0.1%) and ADC buffer (1%) as sample wells were included. Cells were transferred to a 96 well v-bottom plate and spun at 500×g for 5 min. Medium was removed and cells were lysed in 150 μL RLT buffer containing beta-mercaptoethanol. RNA was isolated (RNeasy 96 kit, Qiagen, Cat #74181) and cDNA was synthesized (iScript cDNA Synthesis Kit, BioRad, Cat #170-8891) according to the supplier's protocol. Quantitative PCR was performed on Applied Biosystem's 7900 HT Real-Time PCR System to measure expression of ZBTB16 (Life Technologies, Hs00957433_m1) and GAPDH (Life Technologies, Hs02758991_g1) in duplex format.\nThe ΔΔCt method was used to calculate fold change of expression of ZBTB16 relative to control sample, using 3 replicates per treatment condition. For free cell impermeable compounds, B cells were seeded at 100,000 cells/well in 90 μL in a 96-well flat bottom plate. Three fold serial dilutions were performed in DMSO, subsequent intermediate 10× stocks were made in tissue-culture medium and then added to the cell plate (10 μL/well). Cells were incubated at 37° C., 5% CO2 for 18 hr, harvested and processed for PCR as described above. EC50 curves were calculated using Graph Pad Prism 6 software using nonlinear fit (agonist) vs. response-variable slope (four parameters) calculation.\nPotency and maximum activity of reduced permeability glucocorticoids (free payload) and the corresponding anti-CD74-drug conjugates on up-regulation of ZBTB16 mRNA levels in primary human B cells in vitro."}},
  "data": [
    {"molecule": "C[C@@H]1C[C@H]2[C@@H]3C[C@H](F)C4=CC(=O)C=C[C@]4(C)[C@@]3(F)[C@@H](O)C[C@]2(C)[C@@]1(OC(=O)CCCCCCCCP(=O)(O)O)C(=O)SCF", "note": "[Compound 18, (9-(((6S,8S,9R,10S,11S,13S,14S,16R,17R)-6,9-difluoro-17-(((fluoromethyl)thio)carbonyl)-11-hydroxy-10,13,16-trimethyl-3-oxo-6,7,8,9,10,11,12,13,14,15,16,17-dodecahydro-3H-cyclopenta[a]phenanthren-17-yl)oxy)-9-oxononyl)phosphonic acid]", "values": [
      {"measurement": "IC50", "setting": "glucocorticoid receptor", "result": 0.0001, "unit": "µM"},
      {"measurement": "GILZ Max", "setting": "GILZ gene; at 10 uM", "result": "65% (at"},
      {"measurement": "EC50", "setting": "GILZ gene; read-out: GILZ EC50", "result": 3.04, "unit": "µM"},
      {"measurement": "MDCK Permeability (cm × 10−6/sec)", "setting": "MDCKII cells", "result": "<0.9", "unit": "cm × 10−6/sec"},
      {"measurement": "ZBTB16 mRNA Max relative to free fluticasone", "setting": "ZBTB16 mRNA", "result": ">77", "unit": "%"},
      {"measurement": "EC50", "setting": "ZBTB16 mRNA; B-cell, free payload", "result": 3.2, "unit": "µM"}
    ]}
  ]
}
